Results as given in ChEMBL document CHEMBL4043168, “The design and SAR of a novel series of 2-aminopyridine based LRRK2 inhibitors” (Bioorg Med Chem Lett, 2017).

Columns and labels:
[1] = target: Ribosomal protein S6 kinase alpha-1 (Homo sapiens) (UniProt Q15418); assay: Inhibition of RSK1 conserved Lys2 (DLKPENILLDEEGHIK) in human PBMC at 0.1 uM
[2] = target: Cyclin-dependent kinase 5 (Homo sapiens) (UniProt Q00535); assay: Inhibition of CDK5 labeling at conserved Lys2 (DLKPQNLLINR) in human PBMC at 1 uM
[3] = target: Serine/threonine-protein kinase Nek7 (Homo sapiens) (UniProt Q8TDX7); assay: Inhibition of NEK7 conserved Lys2 (DIKPANVFITATGVVK) in human PBMC at 1 uM
[4] = target: Calcium/calmodulin-dependent protein kinase type II subunit alpha (Homo sapiens) (UniProt Q9UQM7); assay: Inhibition of CaMK2a labeling at conserved Lys2 (DLKPENLLLASK) in human PBMC at 1 uM
[5] = target: Dual specificity mitogen-activated protein kinase kinase 2 (Homo sapiens) (UniProt P36507); assay: Inhibition of MAP2K2 conserved Lys2 (IMHRDVKPSNILVNSR) in human PBMC at 0.1 uM
[6] = target: T1, Mitogen-activated protein kinase kinase kinase 5 (Homo sapiens) (UniProt Q99683); assay: Inhibition of MAP3K5 conserved Lys1 (IAIKEIPER) in human PBMC at 0.1 uM
T1 sequence (whole entry): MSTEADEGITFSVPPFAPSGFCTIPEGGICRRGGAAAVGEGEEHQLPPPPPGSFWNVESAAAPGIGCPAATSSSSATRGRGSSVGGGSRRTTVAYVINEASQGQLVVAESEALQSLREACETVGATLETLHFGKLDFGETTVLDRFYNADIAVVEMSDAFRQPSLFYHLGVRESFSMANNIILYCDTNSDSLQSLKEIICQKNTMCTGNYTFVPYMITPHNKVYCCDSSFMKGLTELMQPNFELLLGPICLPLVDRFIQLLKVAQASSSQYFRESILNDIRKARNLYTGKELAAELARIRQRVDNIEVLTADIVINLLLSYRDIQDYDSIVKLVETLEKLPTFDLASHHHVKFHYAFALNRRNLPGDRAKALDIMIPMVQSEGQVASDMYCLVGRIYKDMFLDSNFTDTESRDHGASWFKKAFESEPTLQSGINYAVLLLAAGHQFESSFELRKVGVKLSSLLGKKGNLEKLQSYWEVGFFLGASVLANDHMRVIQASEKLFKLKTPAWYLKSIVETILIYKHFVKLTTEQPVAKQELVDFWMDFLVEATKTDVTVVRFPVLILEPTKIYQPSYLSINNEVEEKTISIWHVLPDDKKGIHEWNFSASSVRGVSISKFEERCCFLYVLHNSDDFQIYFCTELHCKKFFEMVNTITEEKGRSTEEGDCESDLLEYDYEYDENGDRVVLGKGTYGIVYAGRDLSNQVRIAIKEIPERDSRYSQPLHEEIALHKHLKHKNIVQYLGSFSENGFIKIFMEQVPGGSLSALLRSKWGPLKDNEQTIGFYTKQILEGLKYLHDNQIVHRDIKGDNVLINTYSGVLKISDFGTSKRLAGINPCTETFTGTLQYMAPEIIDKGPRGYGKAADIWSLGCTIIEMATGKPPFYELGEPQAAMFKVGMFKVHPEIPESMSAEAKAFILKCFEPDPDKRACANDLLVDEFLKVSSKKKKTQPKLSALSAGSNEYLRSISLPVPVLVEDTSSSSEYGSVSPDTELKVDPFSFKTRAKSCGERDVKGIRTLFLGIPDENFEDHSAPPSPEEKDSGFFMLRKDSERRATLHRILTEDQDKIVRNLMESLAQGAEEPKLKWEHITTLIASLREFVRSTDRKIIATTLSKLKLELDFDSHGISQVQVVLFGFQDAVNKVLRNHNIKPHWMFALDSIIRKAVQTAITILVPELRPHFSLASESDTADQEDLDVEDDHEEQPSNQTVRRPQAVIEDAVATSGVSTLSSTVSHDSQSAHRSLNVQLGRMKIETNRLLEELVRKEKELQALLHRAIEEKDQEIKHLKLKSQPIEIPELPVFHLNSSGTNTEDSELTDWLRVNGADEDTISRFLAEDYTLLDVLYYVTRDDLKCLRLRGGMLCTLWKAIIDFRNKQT

[7] = target: Cyclin-dependent kinase 5 (Homo sapiens) (UniProt Q00535); assay: Inhibition of CDK5 labeling at conserved Lys2 (DLKPQNLLINR) in human PBMC at 0.1 uM
[8] = target: Interleukin-1 receptor-associated kinase 1 (Homo sapiens) (UniProt P51617); assay: Inhibition of IRAK1 conserved Lys2 (AIQFLHQDSPSLIHGDIKSSNVLLDER) in human PBMC at 0.1 uM
[9] = target: Eukaryotic elongation factor 2 kinase (Homo sapiens) (UniProt O00418); assay: Inhibition of eEF2K ATP binding site (YIKYNSNSGFVR) in human PBMC at 1 uM
[10] = target: Cyclin-dependent kinase 17 (Homo sapiens) (UniProt Q00537); assay: Inhibition of PCTAIRE2 conserved Lys2 (DLKPQNLLINEK) in human PBMC at 0.1 uM
[11] = target: Mitogen-activated protein kinase 7 (Homo sapiens) (UniProt Q13164); assay: Inhibition of Erk5 conserved Lys2 (DLKPSNLLVNENCELK) in human PBMC at 1 uM
[12] = target: Mitogen-activated protein kinase kinase kinase 4 (Homo sapiens) (UniProt Q9Y6R4); assay: Inhibition of MAP3K4 conserved Lys2 (DIKGANIFLTSSGLIK) in human PBMC at 0.1 uM
[13] = target: Phosphatidylinositol 5-phosphate 4-kinase type-2 gamma (Homo sapiens) (UniProt Q8TBX8); assay: Inhibition of PIP4K2C ATP binding site (TLVIKEVSSEDIADMHSNLSNYHQYIVK) in human PBMC at 1 uM
[14] = target: 5'-AMP-activated protein kinase catalytic subunit alpha-1 (Homo sapiens) (UniProt Q13131); assay: Inhibition of AMPKa1 labeling at conserved Lys1 (VAVKILNR) in human PBMC at 1 uM
[15] = target: Leucine-rich repeat serine/threonine-protein kinase 2 (Homo sapiens, UniProt Q5S007); assay: Inhibition of LRRK2 conserved Lys2 (DLKPHNVLLFTLYPNAAIIAK) in human PBMC at 0.1 uM
[16] = target: 5'-AMP-activated protein kinase catalytic subunit alpha-1 (Homo sapiens) (UniProt Q13131); assay: Inhibition of AMPKa1 ATP loop (IGHYILGDTLGVGTFGKVK) in human PBMC at 1 uM; details: pooled result: one value given for 5 cell lines, strains, targets or settings
[17] = target: Mitogen-activated protein kinase kinase kinase 20 (Homo sapiens) (UniProt Q9NYL2); assay: Inhibition of ZAK conserved Lys1 (WISQDKEVAVKK) in human PBMC at 0.1 uM
Chain of Mitogen-activated protein kinase kinase kinase 20 (Homo sapiens) (Q9NYL2 2-800 limits assumed): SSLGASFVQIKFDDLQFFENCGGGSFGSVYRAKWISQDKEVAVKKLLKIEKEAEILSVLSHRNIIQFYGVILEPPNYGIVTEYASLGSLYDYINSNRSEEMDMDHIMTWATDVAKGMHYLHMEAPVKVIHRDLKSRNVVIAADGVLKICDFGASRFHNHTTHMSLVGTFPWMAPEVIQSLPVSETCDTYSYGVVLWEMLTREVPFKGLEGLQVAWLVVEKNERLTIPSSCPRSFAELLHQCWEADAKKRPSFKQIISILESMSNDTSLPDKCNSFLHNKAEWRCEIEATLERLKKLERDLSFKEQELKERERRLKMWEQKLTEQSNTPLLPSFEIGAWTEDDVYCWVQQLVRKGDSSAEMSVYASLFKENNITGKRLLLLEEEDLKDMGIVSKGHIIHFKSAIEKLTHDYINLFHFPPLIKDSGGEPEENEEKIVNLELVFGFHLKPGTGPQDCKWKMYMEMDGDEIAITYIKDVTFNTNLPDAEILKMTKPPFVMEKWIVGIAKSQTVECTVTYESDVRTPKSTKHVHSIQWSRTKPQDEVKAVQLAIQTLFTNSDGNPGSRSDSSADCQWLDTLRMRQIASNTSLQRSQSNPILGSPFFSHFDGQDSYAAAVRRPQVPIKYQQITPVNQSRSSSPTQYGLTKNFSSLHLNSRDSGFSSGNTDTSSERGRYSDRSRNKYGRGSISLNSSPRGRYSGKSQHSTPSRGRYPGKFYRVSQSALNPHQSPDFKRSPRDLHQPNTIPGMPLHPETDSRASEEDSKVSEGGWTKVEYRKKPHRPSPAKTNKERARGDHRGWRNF

Chain of 5'-AMP-activated protein kinase catalytic subunit alpha-1 (Homo sapiens) (Q13131 whole entry, looked up): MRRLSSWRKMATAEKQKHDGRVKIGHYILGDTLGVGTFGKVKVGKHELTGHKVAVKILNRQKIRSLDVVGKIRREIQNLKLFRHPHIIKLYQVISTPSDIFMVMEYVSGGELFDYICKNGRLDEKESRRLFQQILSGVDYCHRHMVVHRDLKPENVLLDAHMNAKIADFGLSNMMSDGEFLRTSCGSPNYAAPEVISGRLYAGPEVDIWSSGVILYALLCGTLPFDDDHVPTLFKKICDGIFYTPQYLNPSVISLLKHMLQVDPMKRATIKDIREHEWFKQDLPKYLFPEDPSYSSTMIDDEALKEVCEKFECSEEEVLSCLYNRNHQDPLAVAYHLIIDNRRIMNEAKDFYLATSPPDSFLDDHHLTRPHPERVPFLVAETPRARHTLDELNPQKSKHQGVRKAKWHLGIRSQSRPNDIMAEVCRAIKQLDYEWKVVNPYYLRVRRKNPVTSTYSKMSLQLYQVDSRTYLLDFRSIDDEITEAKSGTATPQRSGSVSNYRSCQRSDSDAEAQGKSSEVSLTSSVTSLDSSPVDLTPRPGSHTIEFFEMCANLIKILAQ
Chain of Cyclin-dependent kinase 5 (Homo sapiens) (Q00535 whole entry, looked up): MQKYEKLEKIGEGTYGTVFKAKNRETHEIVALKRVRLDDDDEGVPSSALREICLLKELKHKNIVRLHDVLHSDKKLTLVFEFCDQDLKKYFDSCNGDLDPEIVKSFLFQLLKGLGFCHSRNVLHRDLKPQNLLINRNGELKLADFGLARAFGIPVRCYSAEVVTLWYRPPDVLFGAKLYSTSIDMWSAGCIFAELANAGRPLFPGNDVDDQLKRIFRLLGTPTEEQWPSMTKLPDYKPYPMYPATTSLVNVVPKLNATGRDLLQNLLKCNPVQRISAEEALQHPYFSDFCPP
Chain of Ribosomal protein S6 kinase alpha-1 (Homo sapiens) (Q15418 whole entry): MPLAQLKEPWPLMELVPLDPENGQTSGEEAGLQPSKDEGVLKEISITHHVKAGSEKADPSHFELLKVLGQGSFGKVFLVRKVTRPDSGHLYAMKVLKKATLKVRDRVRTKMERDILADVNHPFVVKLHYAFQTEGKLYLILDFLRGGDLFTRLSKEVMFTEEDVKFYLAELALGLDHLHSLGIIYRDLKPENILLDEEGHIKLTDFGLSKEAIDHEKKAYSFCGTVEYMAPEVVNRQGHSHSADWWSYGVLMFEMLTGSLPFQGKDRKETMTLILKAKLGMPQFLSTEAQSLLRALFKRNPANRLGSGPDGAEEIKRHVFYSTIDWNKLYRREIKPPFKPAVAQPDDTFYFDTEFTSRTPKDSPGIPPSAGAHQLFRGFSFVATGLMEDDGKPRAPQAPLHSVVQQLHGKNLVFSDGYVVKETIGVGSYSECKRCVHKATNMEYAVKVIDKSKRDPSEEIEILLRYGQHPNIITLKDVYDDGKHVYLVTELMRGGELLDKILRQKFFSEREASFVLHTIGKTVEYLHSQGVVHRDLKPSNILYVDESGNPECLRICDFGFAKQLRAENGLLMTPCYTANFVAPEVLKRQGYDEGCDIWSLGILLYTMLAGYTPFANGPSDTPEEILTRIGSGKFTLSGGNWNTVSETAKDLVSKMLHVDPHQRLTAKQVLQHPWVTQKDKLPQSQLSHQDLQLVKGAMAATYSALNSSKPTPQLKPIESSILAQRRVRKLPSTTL
Chain of Dual specificity mitogen-activated protein kinase kinase 2 (Homo sapiens) (P36507 whole entry): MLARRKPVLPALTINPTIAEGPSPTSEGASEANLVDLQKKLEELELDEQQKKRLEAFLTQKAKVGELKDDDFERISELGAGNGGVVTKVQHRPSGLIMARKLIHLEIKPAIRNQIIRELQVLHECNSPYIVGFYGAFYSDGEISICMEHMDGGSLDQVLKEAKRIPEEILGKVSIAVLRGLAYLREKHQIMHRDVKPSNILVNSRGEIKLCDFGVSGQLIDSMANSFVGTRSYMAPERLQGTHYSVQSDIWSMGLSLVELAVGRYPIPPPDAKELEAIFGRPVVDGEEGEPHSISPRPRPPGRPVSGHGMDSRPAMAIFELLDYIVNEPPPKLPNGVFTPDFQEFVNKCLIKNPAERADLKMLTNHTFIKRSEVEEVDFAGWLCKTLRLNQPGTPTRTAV
Chain of Mitogen-activated protein kinase 7 (Homo sapiens) (Q13164 2-816 limits assumed): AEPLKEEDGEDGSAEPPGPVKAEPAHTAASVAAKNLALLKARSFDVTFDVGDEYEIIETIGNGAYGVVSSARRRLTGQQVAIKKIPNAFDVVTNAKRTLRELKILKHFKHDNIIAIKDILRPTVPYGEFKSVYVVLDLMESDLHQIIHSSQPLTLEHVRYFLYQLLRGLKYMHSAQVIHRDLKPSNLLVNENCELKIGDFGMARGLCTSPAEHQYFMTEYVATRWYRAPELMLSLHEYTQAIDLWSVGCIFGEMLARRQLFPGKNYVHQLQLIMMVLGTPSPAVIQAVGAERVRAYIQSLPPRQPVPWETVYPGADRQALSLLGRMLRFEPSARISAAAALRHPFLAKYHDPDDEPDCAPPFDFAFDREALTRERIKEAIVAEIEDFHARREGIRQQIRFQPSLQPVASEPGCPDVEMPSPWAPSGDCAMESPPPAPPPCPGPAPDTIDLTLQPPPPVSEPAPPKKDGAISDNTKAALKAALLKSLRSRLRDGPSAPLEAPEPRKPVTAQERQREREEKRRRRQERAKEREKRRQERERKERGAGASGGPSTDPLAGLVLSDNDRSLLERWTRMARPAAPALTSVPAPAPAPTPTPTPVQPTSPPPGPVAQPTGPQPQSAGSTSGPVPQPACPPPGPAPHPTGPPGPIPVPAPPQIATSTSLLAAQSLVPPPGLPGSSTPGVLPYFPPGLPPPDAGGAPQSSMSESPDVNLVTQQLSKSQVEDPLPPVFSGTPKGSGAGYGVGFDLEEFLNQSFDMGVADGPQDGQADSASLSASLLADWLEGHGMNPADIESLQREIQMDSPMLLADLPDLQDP
Chain of Serine/threonine-protein kinase Nek7 (Homo sapiens) (Q8TDX7 whole entry, looked up): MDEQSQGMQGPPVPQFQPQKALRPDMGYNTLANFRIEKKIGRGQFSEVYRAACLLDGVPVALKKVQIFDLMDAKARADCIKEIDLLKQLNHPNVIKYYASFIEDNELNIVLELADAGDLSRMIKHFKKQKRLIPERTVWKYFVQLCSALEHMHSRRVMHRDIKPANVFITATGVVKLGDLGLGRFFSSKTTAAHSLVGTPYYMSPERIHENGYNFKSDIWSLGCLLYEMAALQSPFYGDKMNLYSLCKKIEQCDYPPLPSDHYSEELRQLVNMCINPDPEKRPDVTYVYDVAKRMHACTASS
Chain of Eukaryotic elongation factor 2 kinase (Homo sapiens) (O00418 whole entry): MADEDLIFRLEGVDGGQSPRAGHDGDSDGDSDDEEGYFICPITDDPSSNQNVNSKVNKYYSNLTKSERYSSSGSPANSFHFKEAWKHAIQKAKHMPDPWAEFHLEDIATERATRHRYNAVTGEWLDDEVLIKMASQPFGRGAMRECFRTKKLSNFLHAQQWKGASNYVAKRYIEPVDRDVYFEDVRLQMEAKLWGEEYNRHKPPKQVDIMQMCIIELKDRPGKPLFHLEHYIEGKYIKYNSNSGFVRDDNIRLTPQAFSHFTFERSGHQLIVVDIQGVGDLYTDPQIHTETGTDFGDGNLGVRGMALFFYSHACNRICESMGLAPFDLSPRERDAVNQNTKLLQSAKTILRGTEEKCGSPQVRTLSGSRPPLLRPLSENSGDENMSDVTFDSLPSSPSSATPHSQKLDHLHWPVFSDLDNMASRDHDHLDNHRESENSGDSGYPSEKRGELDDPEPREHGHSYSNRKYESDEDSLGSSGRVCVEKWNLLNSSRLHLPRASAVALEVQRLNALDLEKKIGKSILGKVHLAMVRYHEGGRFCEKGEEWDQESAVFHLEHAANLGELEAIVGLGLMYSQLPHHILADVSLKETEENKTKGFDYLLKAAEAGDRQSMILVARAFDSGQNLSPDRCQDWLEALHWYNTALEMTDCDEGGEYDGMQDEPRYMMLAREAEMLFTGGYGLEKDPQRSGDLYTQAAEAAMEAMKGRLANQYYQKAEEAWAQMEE

Work on `CC(C)n1cc(-c2cc(-c3ccc(CN4CCOCC4)cc3)cnc2N)nn1` yielded an inhibition [1] of 11.8%, an inhibition [2] of 8.9% and an inhibition [3] of -9.6%. For the same compound, the inhibition [4] was -0.4%, the inhibition [5] was -5.6% and the inhibition [6] was -0.5%. For the same compound, the inhibition [7] was -3.3%, the inhibition [8] was 22.7% and the inhibition [9] was -6.7%. It also gave an inhibition [10] of 21.7%, an inhibition [11] of 30% and an inhibition [12] of 3.8%. The inhibition [13] was 6.4%, the inhibition [14] was 17.3% and the inhibition [15] was 8.6%. For the same compound, the inhibition [16] was 13.1% and the inhibition [17] was 11.3%.
